Literature values as cited in patent US10987324B2, “Methods and compositions for the treatment of seizure-related disorders” (Adamas Pharmaceuticals, Inc., priority 2015, dated 2021).
Where two headings read alike, the source gives them in different places.

Key:
[1] = cited from earlier work
[2] = cited from earlier work; remark: listed apart in the source

SMILES: C=CC(N)CCC(=O)O (racemic) [vigabatrin, (RS)-4-aminohex-5-enoic acid]
- Cmax ([1]; at steady state): 61 µg/mL
- T1/2 ([1]; at steady state): 7.5 h
- elimination / plasma / pharmacokinetic half-life ([1]; human): about 10 hours
- Tmax ([1]; oral dosing, human): approximately 1 hours

SMILES: NC(=O)N1c2ccccc2CC(O)c2ccccc21 (stereo not shown) [MDH, 10-monohydroxy metabolite]
- elimination / plasma / pharmacokinetic half-life ([1]; human): 9 h

SMILES: CC(=O)N[C@H](CO)C(=O)NCc1ccccc1 [O-desmethyl metabolite]
- reduction of concentrations and amount excreted into urine ([1]; CYP2C19 poor metabolizers compared to extensive metabolizers): about 70%
- elimination / plasma / pharmacokinetic half-life ([1]; human): 15 to 23 h
- Tmax ([1]; oral dosing, human): 30 to 720 min

SMILES: CCCC(CCC)C(=O)O [divalproex sodium]
- elimination / plasma / pharmacokinetic half-life ([1]; human): about 15 hours

SMILES: CC[C@@H](C(N)=O)N1CCCC1=O [levetiracetam, (S)-alpha-ethyl-2-oxo-pyrrolidine acetamide]
- Tmax ([1]; fasted subjects): approximately one
- elimination / plasma / pharmacokinetic half-life ([1]; human): about 7 hours
- elimination / plasma / pharmacokinetic half-life ([1]; human, listed as Levetiracetam): 6 to 8 h
- AUC0-24 ([1]; in vivo): 300 to 350 µg·h/mL
- renal excretion rate ([1]; mostly unmetabolized form): 0.6 mL/min/kg
- patients reporting somnolence ([2]; 4000 mg daily, untitrated study): Approximately 45%
- patients with somnolence ([2]; compared to 8% with placebo): 14.8%

SMILES: NC(=O)N1c2ccccc2CC(=O)c2ccccc21 [oxcarbazepine, 10,11-dihydro-10-oxo-5H-dibenz(b,f)azepine-5-carboxamide]
- AUC0-24 ([1]; 600 mg IR BID): 16.8 µg·h/mL
- Cmax ([1]; 600 mg IR BID): 2.72 µg/mL
- elimination / plasma / pharmacokinetic half-life ([1]; human): about 20 hours
- elimination / plasma / pharmacokinetic half-life ([1]; human, listed as Oxcarbazepine): approximately 2 hours
- Tmax ([1]; oral dosing, human): approximately 3 hours

SMILES: CCCC(CCC)C(=O)O [valproic acid, 2-propylpentanoic acid]
- elimination / plasma / pharmacokinetic half-life ([1]; human): 9 to 16 h
